Results as given in ChEMBL document CHEMBL1201862, “PubChem BioAssay data set” (2004).
Calls of active or inactive are those of the source.

What was measured:
[1] = alpha-synuclein stem-loop luciferase translation blockers – H4 neuroglioma cells, luminescence, confirmation (AID 1988); assay type: functional, cell-based
[2] = Luminescence Cell-Based Dose Response HTS to Identify Inhibitors of 5'UTR Stem-Loop Driven Prion Protein mRNA Translation in H4 Neuroglioblastoma Cells. [Related pubchem assays: 1827 (Project Summary), 1813 (Primary HTS)]; assay type: functional
[3] = biological target: T1, G-protein coupled receptor 55 (Homo sapiens, UniProt Q9Y2T6); assay: inhibition of LPI-stimulated GPR55 beta-arrestin translocation – imaging, U2OS, beta-arrestin-GFP, LPI agonist, primary screen (AID 2013); assay type: functional;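 also: antagonist potency measured as reduced agonist-driven arrestin aggregation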
T1 sequence (Q9Y2T6 whole entry): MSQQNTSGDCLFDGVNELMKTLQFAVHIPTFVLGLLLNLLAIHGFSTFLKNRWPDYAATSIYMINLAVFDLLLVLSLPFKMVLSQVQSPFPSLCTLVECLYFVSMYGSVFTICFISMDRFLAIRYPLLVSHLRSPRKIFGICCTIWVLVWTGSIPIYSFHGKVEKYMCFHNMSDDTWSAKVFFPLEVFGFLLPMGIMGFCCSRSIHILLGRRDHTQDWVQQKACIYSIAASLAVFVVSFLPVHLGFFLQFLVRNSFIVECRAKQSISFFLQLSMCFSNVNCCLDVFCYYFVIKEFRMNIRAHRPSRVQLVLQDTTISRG

[4] = viability of HCT116 lacking mutant beta-catenin – cell-based, human colon tumor, dose response (AID 1045); assay type: functional;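 also: HCT116 colon tumor cells with beta catenin knocked out; cells exposed to compound for 60 hours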
[5] = luciferase reporter signal suppression in cells – H4 neuroglioma cells, luminescence, dose response (AID 1990); assay type: functional, cell-based
[6] = viability of PTEN-deleted HCT116 cells – cell-based, HCT116 PTEN knockout, dose response (AID 1047); assay type: functional;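 also: HCT116 colon tumor cells with PTEN knocked out; cells exposed to compound for 60 hours before readout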
[7] = viability loss in HeLa cells – cytotoxicity control for MgcRacGAP inhibitor project, dose response (AID 624300); assay type: functional
Phosphomannomutase 2 = biological target: T2, Phosphomannomutase 2 (Homo sapiens, UniProt O15305); assay: Counter screen SAR assay for PMM2 inhibitors via a fluorescence intensity assay. [Related pubchem assays (depositor defined):AID1545, AID1574]
T2 sequence (O15305 whole entry): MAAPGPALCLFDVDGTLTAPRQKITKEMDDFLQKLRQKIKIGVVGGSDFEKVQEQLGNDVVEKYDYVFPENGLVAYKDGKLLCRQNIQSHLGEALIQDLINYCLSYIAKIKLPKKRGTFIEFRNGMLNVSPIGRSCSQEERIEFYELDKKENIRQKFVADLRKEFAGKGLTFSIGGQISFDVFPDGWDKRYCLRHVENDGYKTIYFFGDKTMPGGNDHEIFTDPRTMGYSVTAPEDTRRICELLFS

[8] = biological target: Phosphoethanolamine/phosphocholine phosphatase (Homo sapiens, UniProt Q8TCT1); assay: SAR assay for compounds that inhibit PHOSPHO1. [Related pubchem assays (depositor defined):AID1545, AID1565, AID1574]
Sequence of Phosphoethanolamine/phosphocholine phosphatase (Q8TCT1 whole entry): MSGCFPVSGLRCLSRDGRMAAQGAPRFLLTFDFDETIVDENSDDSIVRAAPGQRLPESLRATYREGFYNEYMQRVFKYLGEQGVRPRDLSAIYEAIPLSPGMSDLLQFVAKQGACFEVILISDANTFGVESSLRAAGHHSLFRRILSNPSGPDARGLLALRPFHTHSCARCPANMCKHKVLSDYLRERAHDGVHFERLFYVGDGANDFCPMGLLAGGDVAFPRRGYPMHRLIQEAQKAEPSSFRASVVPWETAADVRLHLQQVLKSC

Hexokinase = biological target: T3, Hexokinase (Trypanosoma brucei, UniProt Q38C41); assay: Confirmation assay for inhibitors of Trypanosoma brucei hexokinase 1-Analogue-first series. [Related pubchem assays (depositor defined):AID1430, AID1632, AID2516, AID2560, AID2579, AID2600, AID449725, AID492951]; assay type: functional
T3 sequence (Q38C41 whole entry): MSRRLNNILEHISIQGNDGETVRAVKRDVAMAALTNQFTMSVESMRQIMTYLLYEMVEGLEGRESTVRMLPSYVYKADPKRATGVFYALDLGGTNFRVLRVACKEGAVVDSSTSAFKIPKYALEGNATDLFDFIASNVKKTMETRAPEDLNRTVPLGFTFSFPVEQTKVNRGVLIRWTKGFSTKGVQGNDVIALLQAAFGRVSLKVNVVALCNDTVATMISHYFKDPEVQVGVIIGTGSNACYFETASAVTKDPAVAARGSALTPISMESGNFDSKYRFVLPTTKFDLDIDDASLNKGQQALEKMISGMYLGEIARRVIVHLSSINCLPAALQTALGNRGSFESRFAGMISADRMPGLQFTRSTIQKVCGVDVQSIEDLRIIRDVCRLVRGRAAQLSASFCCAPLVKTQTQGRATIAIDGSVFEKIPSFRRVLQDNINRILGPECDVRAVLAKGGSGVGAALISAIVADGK

CHO = CHO cell viability loss, potency – luminescence, cytotoxicity control for TLR9-MyD88 binding inhibitor project, dose response (AID 588339); assay type: functional, cell-based, hamster; conditions: Cricetulus griseus;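 also: CHO cells stably coexpressing TLR9 and MyD88 fusions from primary screen; compound exposure lasted 48 hours before viability readout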
Beta Lactamase [9] = biological target: T4, Beta Lactamase (Pseudomonas aeruginosa, UniProt Q932Y6); assay: BLA reporter interference, concentration series – BLA reporter cells, FRET fluorescence, artefact control for NOD2-RIPK2 interaction inhibitor project, dose response (AID 651552); assay type: functional, cell-based
T4 sequence (Q932Y6 whole entry): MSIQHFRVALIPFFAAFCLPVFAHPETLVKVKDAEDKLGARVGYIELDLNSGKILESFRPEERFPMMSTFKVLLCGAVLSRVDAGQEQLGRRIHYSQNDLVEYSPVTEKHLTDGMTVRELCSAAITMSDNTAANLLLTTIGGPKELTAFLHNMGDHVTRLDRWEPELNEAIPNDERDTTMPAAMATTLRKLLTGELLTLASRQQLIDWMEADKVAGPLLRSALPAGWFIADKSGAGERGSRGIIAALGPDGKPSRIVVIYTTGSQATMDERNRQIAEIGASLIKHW

[10] = biological target: DNA dC->dU-editing enzyme APOBEC-3A (Homo sapiens, UniProt P31941); assay: A3A deaminase inhibition for selectivity – biochemical, dose response (AID 504722); assay type: functional
Sequence of DNA dC->dU-editing enzyme APOBEC-3A (P31941 whole entry): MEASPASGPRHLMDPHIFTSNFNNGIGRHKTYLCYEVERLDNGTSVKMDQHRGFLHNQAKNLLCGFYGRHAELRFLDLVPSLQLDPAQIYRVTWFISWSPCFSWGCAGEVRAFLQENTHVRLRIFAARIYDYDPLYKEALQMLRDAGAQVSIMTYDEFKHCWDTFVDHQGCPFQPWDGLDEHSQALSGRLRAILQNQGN

[11] = biological target: DNA dC->dU-editing enzyme APOBEC-3G (Homo sapiens, UniProt Q9HC16); assay: Dose Response confirmation of small molecule APOBEC3G DNA Deaminase Inhibitors via a fluorescence-based single-stranded DNA deaminase assay. [Related pubchem assays (depositor defined):AID493012, AID493028]; assay type: functional
Sequence of DNA dC->dU-editing enzyme APOBEC-3G (Q9HC16 whole entry): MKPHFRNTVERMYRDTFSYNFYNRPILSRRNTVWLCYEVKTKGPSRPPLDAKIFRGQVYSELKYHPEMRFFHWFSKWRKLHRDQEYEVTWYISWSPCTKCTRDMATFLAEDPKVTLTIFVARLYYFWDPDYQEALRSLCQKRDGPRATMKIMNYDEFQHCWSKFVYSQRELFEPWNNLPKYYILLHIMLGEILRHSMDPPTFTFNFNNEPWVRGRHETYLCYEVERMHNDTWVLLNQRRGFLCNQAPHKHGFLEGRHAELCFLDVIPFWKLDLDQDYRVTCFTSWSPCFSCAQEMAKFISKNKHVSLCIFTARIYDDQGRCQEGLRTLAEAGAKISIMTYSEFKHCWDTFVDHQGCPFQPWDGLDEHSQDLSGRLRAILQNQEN

[12] = biological target: T5, Alkaline phosphatase, tissue-nonspecific isozyme (Homo sapiens, UniProt P05186); assay: potency against alkaline phosphatase TNAP – biochemical, luminescent, dose response, SAR follow-up (AID 1056)
T5 sequence (P05186 whole entry): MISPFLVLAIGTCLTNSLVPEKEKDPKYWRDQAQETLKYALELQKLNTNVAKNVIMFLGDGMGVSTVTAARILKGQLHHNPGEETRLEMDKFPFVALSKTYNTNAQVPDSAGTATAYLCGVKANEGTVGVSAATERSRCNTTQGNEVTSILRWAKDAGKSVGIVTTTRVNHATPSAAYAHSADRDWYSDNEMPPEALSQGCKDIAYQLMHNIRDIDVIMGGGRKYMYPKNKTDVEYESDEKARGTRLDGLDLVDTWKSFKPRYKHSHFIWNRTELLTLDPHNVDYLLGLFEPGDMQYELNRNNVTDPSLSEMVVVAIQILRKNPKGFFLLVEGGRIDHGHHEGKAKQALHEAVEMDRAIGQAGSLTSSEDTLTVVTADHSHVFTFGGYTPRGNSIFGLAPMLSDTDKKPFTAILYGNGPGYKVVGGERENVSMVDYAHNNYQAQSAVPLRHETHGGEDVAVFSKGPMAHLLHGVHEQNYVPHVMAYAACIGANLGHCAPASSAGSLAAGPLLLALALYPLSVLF

Beta Lactamase [13] = biological target: T4, Beta Lactamase; assay: BLA reporter interference, concentration series – BLA reporter cells, FRET fluorescence, artefact control for TLR9-MyD88 binding inhibitor project, dose response (AID 588341); assay type: cell-based;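 also: cell based assay in CHO-K1 cells stably expressing beta-lactamase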
[14] = Fluorescence-based cell-based high throughput dose response assay for inhibitors of the interaction of nucleotide-binding oligomerization domain containing 2 (NOD2) and the receptor-interacting serine-threonine kinase 2 (RIPK2).; assay type: functional; conditions: Homo sapiens
[15] = biological target: T6, Rac GTPase-activating protein 1 (Homo sapiens, UniProt Q9H0H5); assay: blockers of MgcRacGAP-driven Rac1 GTP hydrolysis – biochemical, ADP Hunter fluorescence, primary and confirmatory, confirmation (AID 624330); assay type: functional
T6 sequence (Q9H0H5 whole entry): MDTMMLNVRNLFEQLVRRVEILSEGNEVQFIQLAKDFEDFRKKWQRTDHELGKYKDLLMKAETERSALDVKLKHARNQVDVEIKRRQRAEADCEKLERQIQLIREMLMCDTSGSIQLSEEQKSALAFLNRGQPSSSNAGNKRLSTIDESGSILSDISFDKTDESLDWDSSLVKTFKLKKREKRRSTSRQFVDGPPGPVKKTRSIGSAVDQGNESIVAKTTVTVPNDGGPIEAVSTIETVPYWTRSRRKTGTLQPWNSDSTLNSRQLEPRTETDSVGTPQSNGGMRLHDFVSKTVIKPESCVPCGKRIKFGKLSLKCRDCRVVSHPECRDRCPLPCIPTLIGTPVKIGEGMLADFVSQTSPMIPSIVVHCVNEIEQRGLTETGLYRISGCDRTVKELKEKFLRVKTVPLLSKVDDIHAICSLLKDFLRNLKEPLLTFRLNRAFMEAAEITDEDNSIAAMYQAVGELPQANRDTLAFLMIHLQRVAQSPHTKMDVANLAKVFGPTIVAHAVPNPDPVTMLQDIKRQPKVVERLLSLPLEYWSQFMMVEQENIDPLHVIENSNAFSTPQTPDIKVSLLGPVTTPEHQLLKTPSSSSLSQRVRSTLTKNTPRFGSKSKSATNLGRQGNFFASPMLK

[16] = biological target: Mitochondrial peptide methionine sulfoxide reductase (Bos taurus, UniProt P54149); assay: Absorbance-based biochemical high throughput dose response assay for activators of Methionine sulfoxide reductase A (MsrA).; assay type: functional
Sequence of Mitochondrial peptide methionine sulfoxide reductase (P54149 whole entry, the tested form may be a part): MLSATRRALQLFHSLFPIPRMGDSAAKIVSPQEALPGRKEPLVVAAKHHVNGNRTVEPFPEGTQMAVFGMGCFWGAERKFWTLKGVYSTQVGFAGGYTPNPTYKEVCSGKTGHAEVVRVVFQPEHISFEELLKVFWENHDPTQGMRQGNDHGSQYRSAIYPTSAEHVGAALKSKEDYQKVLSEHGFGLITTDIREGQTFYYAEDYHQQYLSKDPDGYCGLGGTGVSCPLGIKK

[17] = biological target: NACHT, LRR and PYD domains-containing protein 1 (Homo sapiens, UniProt Q9C000); assay: NALP1 inhibitors in yeast, dose response, luminescent (AID 488860); assay type: functional
Sequence of NACHT, LRR and PYD domains-containing protein 1 (Q9C000 1-1212 limits assumed): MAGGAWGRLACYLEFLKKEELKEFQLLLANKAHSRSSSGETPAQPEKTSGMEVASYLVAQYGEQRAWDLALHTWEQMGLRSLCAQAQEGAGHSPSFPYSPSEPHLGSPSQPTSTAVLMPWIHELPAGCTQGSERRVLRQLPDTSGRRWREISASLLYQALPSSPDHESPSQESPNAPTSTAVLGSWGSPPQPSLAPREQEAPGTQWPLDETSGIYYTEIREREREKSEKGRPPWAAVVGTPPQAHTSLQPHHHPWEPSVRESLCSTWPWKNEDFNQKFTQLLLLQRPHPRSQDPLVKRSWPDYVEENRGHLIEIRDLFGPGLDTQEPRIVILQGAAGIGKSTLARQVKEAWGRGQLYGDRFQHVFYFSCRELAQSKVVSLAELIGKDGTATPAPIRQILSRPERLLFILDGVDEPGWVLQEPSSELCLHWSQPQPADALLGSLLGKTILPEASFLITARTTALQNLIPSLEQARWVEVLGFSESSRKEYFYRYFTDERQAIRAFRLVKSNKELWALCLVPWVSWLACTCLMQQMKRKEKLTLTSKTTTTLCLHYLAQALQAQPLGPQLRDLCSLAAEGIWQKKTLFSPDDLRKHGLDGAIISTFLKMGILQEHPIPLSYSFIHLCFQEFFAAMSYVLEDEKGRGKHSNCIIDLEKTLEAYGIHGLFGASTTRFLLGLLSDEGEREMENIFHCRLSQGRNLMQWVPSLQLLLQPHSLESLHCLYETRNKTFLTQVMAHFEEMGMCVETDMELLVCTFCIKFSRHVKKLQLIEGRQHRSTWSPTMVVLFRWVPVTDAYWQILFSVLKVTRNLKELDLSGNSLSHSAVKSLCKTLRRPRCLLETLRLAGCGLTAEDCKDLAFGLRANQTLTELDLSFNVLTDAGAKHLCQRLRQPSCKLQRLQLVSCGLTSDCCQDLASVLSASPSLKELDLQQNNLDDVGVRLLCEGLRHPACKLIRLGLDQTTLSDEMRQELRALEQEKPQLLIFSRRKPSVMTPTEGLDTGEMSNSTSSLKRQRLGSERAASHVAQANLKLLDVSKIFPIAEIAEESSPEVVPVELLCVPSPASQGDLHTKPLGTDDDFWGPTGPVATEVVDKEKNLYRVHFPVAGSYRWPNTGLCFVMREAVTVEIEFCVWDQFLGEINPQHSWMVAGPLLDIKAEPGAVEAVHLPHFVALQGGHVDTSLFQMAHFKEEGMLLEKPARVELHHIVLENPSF
Sequence of NACHT, LRR and PYD domains-containing protein 1 (Q9C000 1213-1473 limits assumed): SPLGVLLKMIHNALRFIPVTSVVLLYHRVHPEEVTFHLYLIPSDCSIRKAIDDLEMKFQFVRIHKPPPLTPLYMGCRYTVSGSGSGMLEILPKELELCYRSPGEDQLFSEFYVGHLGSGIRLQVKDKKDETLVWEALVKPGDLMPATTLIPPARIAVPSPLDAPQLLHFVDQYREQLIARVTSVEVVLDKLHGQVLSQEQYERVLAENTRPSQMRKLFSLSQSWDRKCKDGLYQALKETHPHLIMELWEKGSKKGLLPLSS

Saccharomyces cerevisiae = assay: S. cerevisiae Caspase-1/ASC signal blockers IC50, NALP1 inhibitor project selectivity test (AID 488863); assay type: functional, organism-based
[18] = biological target: T1, G-protein coupled receptor 55; assay: selective activators of receptor GPR55 – imaging, U2OS cells, beta-arrestin-GFP redistribution, primary screen (AID 1961); assay type: functional

CCCCNS(=O)(=O)c1ccc(NC(=O)C(Sc2ccccc2)c2ccccc2)cc1 (configuration not stated)
EC50 [1]: 13.9 µM (active) | EC50 [2]: > 120 µM (not active) | IC50 [3]: 1.12 µM (active) | EC50 [4]: 12.2 µM (active) | EC50 [5]: > 120 µM (not active) | EC50 [6]: 14 µM (active)

O=c1c2cc(F)ccc2sn1-c1ccccc1
CC50 [7]: 100 µM (active) | IC50 (Phosphomannomutase 2): 88.3 µM (active) | IC50 [8]: 792 nM (active) | IC50 (Hexokinase): 1.03 µM (active) | IC50 (CHO): 5.8 µM (active) | IC50 (Beta Lactamase [9]): 23.7 µM (inactive) | IC50 [10]: > 100 µM (inactive) | IC50 [11]: 8.82 µM (active) | IC50 [12]: > 100 µM (inactive) | IC50 (Beta Lactamase [13]): 23 µM (inactive) | IC50 [14]: 4.59 µM (active) | IC50 [15]: 35.5 µM (active) | EC50 [16]: > 104 µM (inactive)

COC(=O)c1sccc1NC(=O)c1csc(C)c1
IC50 [17]: 15.9 µM (active) | IC50 (Saccharomyces cerevisiae): 60.4 µM (active)

O=C(O)c1cccc(CSc2nnc(-c3ccc(Cl)cc3Cl)[nH]2)c1
EC50 [18]: 6.41 µM (active)
